Consider three compounds from patent publication US7488756B2, “Use of non-competitive and selective GluR5 antagonists as glutamate receptor modulating compounds” (Neurosearch A/S, priority 2001, dated 2009).

The target in test [1] is T1, GluR6 receptors (Homo sapiens, UniProt Q13002).
T1 construct: expressed in transfected cells; host or cells: HEK293
The test is described as follows: Functional GluR6 assay: inhibition of domoate-induced increase in intracellular free calcium (FLIPR, Fluo-4). The test is classed as cell-based. The note with it: for pIC50: HEK293 cells stably expressing un-edited GluR6, inhibition of 2 μM domoate-induced Cai elevation. The text has this:
(§1) In this example the inhibition of domoate-induced increase in intracellular free calcium concentration (Cai) is used as a measure for glutamate antagonist activity of test substances. Domoate is a close analog of kainite, and a potent glutamate agonist.
(§2) Human embryonic HEK293 cells stably expressing GluR5 receptors and GluR6 receptors, respectively, in their un-edited forms, are used.
(§3) Fluorometric methods for measuring Cai have been developed [see e.g. Tsien et al., J. Cell. Biol. 1982 94 325]. The calcium-chelating fluorochromes (tetracarboxylic acids) are loaded into the cells as acetoxymethyl esters and subsequently released by unspecific intracellular esterase's. The free acids, which are impermeable to the cell membrane, are maintained in the cell for hours. The fluorescence spectrum (either EXmax, EMmax or both) is changed by the binding of calcium. The fluorescence is then directly proportional to the Cai.
(§4) The present method uses the fluorochromes Fluo-3 or Fluo-4 as the calcium-chelator. Fluo-3/Fluo-4 is virtually nonfluorescent without calcium but the calcium-Fluo-3/Fluo-4 complexes show a bright fluorescence (EMmax=526 nm) after excitation around 500 nm (EXmax=505 nm). This fluorescence spectrum is similar to the spectrum of fluorescein. Since excitation and emission is in the visible light region of the spectrum standard equipment without quarts optics may be used.
The HEK293 cells stably expressing GluR5 or GluR6 expressing are grown in Dulbecco's Modified Eagle Medium (DMEM) containing 10% foetal calf serum, in polystyrene culture flasks (175 cm^2) in a humidified atmosphere of 5% CO2 in air, at 37° C. Confluency of cells should be 80-90% on day of plating. GluR5 or GluR6 cells are rinsed with 10 ml of phosphate buffered saline (PBS), then added 1.5 ml of Trypsin-EDTA and left in the incubator for 5 min. After addition of 10 ml of growth media, cells are resuspended by trituration with a 10 ml pipette 15 times.
The cells are seeded at a density of 0.5-1×10^6 cells/ml (100 μl/well) in black-walled, clear bottom, 96-well plates pre-treated with 0.001% PEI solution (75 μl/well for ≧30 min). Plated cells were allowed to proliferate for 24 h before loading with dye.
Fluo-4-AM (1 mg; Molecular Probes) is added 912 μl DMSO containing 25 mg/150 μl Pluoronic F-127 (Molecular Probes). […]
(§5) After the loading period, the loading media is aspirated and the cells are washed twice with 100 μl Na^+ free Ringer solution (NN: 10 mM HEPES, 140 mM Choline chloride, 5 mM KCl, 1 mM MgCl2, 10 mM CaCl2, pH 7.4) to remove extracellular dye. 100 μl NN is added to each well, and the fluorescence is measured in the FLIPR (Fluorescence Image Plate Reader). […]
Reading intervals: preincubation—10 sec.×7 and 3 sec.×3 antagonist phase—3 sec.×17 and 10 sec.×12 […]

Test [2] addresses T2, GluR5 receptor (Homo sapiens, UniProt P39086).
T2 construct: expressed in transfected cells; host or cells: HEK293
In words: Functional GluR5 assay: inhibition of domoate-induced increase in intracellular free calcium (FLIPR, Fluo-4). The note with it: for pIC50: HEK293 cells stably expressing un-edited GluR5, inhibition of 2 μM domoate-induced Cai elevation. The class given is cell-based.
Text: as §1, §2
In this example the activity of Compound A of the invention (5-carboxyl-2,4-di-benzamido-benzoic acid), obtained according to Ueda & Imai [Ueda M & Imai Y: Synthesis of polyamides by ring-opening polyaddition of bis-3,1-benzoxazin-4-ones with aliphatic diamines; J. Polym. Sci. 1979 17 (4) 1163-1173], is compared to the action of ATPA, a GluR5 receptor agonist, and CNQX, a GluR5 receptor antagonist that inhibits the activity of the agonist.
as §3, §4
The HEK293 cells stably expressing GluR5 or GluR6 expressing are grown in Dulbecco's Modified Eagle Medium (DMEM) containing 10% foetal calf serum, in polystyrene culture flasks (175 cm^2) in a humidified atmosphere of 5% CO2 in air, at 37° C. Confluency of cells should be 80-90% on day of plating. GluR5 or GluR6 cells are rinsed with 10 ml of phosphate buffered saline (PBS), then added 1.5 ml of Trypsin-EDTA and left in the incubator for 5 min. After addition of 10 ml of growth media, cells are resuspended by trituration with a 10 ml pipette 15 times. […]
as §5

Test [3] addresses T2, GluR5 receptor. The test is described as follows: GluR5 binding assay: displacement of 3H-ATPA from membranes of HEK293 cells expressing GluR5. The method, then:
The amount of radioactivity on the filters is determined by conventional liquid scintillation counting. Specific binding is total binding minus non-specific binding.
Background: In a radioligand displacement assay an active substance lowers the binding of a labelled ligand.

Test [4] deals with T2, GluR5 receptor. The note with it: Clarke et al., Nature 1997 389 599-603; read-out: Kd of binding to the GluR5 receptor; cited from earlier work.
The mark [5] stands for this setting: inhibition of specific binding of 3 nM 3H-ATPA, HEK293 GluR5 cell membranes, 60 minutes at 2° C., read-out: GluR5 Binding IC50.

Broadly, the pIC50 is the negative decadic logarithm of the IC50, by convention in mol/L. The term pKd denotes −log10 of the Kd, conventionally taken in molar units.

Each structure is given as a SMILES string. pIC50, pKd: −log10 of the molar value.

T2 sequence (P39086 31-918): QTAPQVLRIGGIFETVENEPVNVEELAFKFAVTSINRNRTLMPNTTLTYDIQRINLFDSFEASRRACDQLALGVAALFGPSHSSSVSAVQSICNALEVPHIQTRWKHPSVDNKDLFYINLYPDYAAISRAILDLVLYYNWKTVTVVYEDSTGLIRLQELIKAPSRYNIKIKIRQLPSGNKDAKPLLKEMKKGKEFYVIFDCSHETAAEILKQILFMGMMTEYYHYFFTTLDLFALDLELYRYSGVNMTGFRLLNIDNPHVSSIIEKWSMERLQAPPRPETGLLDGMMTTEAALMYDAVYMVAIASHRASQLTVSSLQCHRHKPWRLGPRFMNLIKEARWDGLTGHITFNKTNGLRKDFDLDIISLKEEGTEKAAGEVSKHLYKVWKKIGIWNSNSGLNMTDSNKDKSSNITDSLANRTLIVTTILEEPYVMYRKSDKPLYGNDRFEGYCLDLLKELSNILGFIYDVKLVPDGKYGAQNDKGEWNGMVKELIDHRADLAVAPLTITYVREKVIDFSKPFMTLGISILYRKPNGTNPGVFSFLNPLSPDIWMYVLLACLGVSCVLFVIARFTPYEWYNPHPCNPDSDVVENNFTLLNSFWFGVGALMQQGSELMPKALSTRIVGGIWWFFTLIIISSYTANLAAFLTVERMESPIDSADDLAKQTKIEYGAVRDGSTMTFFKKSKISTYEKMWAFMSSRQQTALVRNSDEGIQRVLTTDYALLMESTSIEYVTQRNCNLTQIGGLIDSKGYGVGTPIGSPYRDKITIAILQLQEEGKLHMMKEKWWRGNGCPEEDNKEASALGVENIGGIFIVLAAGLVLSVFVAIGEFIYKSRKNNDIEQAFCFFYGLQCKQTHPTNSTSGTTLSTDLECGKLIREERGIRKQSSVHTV
T1 sequence (Q13002 32-908): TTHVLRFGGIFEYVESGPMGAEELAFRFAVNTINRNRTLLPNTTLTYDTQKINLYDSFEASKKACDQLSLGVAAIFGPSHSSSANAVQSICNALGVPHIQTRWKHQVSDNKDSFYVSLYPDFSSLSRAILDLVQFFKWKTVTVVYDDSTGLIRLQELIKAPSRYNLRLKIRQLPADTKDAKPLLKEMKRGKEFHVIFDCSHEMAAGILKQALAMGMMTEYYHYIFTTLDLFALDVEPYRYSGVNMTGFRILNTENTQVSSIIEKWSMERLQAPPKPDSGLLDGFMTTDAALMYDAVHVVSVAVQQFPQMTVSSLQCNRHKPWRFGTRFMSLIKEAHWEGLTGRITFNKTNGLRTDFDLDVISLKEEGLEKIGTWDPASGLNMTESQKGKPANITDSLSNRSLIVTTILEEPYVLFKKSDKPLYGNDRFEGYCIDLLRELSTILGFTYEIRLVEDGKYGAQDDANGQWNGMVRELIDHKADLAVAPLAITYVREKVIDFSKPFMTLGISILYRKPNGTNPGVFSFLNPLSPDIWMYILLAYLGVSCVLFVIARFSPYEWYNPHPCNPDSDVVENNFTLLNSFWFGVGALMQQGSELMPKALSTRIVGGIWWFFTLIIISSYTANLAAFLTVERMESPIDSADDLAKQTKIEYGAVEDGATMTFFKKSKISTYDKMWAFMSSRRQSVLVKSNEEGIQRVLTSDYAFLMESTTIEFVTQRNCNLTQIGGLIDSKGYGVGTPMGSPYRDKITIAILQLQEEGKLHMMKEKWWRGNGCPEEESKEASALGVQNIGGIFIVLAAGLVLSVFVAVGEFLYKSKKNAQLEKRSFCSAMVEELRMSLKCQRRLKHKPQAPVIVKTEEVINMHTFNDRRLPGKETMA

In the case of `CC(C)(C)c1onc(O)c1CC(N)C(=O)O` (stereo not drawn) [ATPA, 2-amino-3-(3-hydroxy-5-tert-butylisoxazol-4-yl)propionic acid], the negative logarithm of the IC50 (pIC50) in test [1] is less than 4.52; in test [2], 6.15; in test [3] it was 7.62. Also, the pKd in test [4] is 8.37.
As to `O=C(Nc1cc(NC(=O)c2ccccc2)c(C(=O)O)cc1C(=O)O)c1ccccc1` [Compound A, 5-carboxyl-2,4-di-benzamido-benzoic acid], the pIC50 in test [1] was less than 4.52; in test [2] it was 5.72; in test [3] (setting [5]) it was less than 5.00. Besides, in test [1] (conclusion from functional GluR5 and GluR6 data (Table 1)), the “Selectivity GluR5 over GluR6” value is reported as “activity only at the GluR5 receptor, not at the GluR6 receptor”. Also, the “Mode of action at the GluR5 receptor” value in test [2] (conclusion from functional activity without binding (Table 1)) is recorded as “non-competitive antagonist of the GluR5 receptor”.
Turning to `N#Cc1cc2[nH]c(=O)c(=O)[nH]c2cc1[N+](=O)[O-]` [CNQX], the pIC50 was 5.12 in test [1], 5.48 in test [2] and 6.14 in test [3] (setting [5]).
